Laboratory results: the NIST ThermoML archive (doi:10.1021/acs.jced.6b00365)
± gives the expanded uncertainty stated by the source.

Settings: dynamic light scattering

CCC(C)(C)OC [2-methoxy-2-methylbutane]
Settings | thermal diffusivity [m2/s]
291.5 K, Liquid | 6.65e-08 ± 2.1e-09
302.19 K, Liquid | 6.36e-08 ± 2e-09
312.11 K, Liquid | 6.17e-08 ± 1.9e-09
323 K, Liquid | 5.95e-08 ± 1.9e-09
332.51 K, Liquid | 5.75e-08 ± 1.8e-09
342.71 K, Liquid | 5.5e-08 ± 1.7e-09
352.32 K, Liquid | 5.33e-08 ± 1.7e-09
363.24 K, Liquid | 5.18e-08 ± 1.7e-09
373.18 K, Liquid | 5e-08 ± 1.6e-09
382.92 K, Liquid | 4.84e-08 ± 1.6e-09
388.1 K, Liquid | 4.75e-08 ± 1.5e-09
392.6 K, Liquid | 4.68e-08 ± 1.5e-09
398.45 K, Liquid | 4.61e-08 ± 1.5e-09
402.91 K, Liquid | 4.55e-08 ± 1.5e-09
418.23 K, Liquid | 4.36e-08 ± 1.4e-09
423 K, Liquid | 4.3e-08 ± 1.4e-09
428.55 K, Liquid | 4.24e-08 ± 1.4e-09
432.78 K, Liquid | 4.2e-08 ± 1.4e-09
438.24 K, Liquid | 4.14e-08 ± 1.4e-09
442.67 K, Liquid | 4.1e-08 ± 1.4e-09
448.19 K, Liquid | 4.04e-08 ± 1.3e-09
453.53 K, Liquid | 3.98e-08 ± 1.3e-09
458.62 K, Liquid | 3.95e-08 ± 1.3e-09
463.3 K, Liquid | 3.9e-08 ± 1.3e-09
468.1 K, Liquid | 3.87e-08 ± 1.3e-09
472 K, Liquid | 3.83e-08 ± 1.3e-09
477.88 K, Gas | 2.54e-07
478.34 K, Liquid | 3.81e-08 ± 1.3e-09
482.92 K, Liquid | 3.78e-08 ± 1.3e-09
483.74 K, Gas | 2.3e-07
487.65 K, Gas | 2.13e-07
488.23 K, Liquid | 3.75e-08 ± 1.3e-09
492.26 K, Liquid | 3.71e-08 ± 1.3e-09
493.04 K, Gas | 1.9e-07
498.77 K, Liquid | 3.63e-08 ± 1.2e-09
499.05 K, Gas | 1.63e-07
501.9 K, Liquid | 3.6e-08 ± 1.2e-09
502.72 K, Gas | 1.45e-07
504.05 K, Liquid | 3.58e-08 ± 1.2e-09
506.94 K, Liquid | 3.52e-08 ± 1.2e-09
508.18 K, Gas | 1.21e-07
508.48 K, Liquid | 3.51e-08 ± 1.2e-09
511.05 K, Liquid | 3.42e-08 ± 1.2e-09
511.38 K, Gas | 1.05e-07
514.02 K, Liquid | 3.36e-08 ± 1.2e-09
517.41 K, Gas | 7.83e-08
517.73 K, Liquid | 3.2e-08 ± 1.1e-09
519.01 K, Liquid | 3.15e-08 ± 1.1e-09
522.19 K, Liquid | 2.98e-08 ± 1.1e-09
522.45 K, Gas | 4.2e-08

Liquid
Settings | thermal diffusivity [m2/s]
373.1 K, 7000 kPa | 5.35e-08 ± 1.7e-09
373.11 K, 4000 kPa | 5.2e-08 ± 1.7e-09
373.12 K, 10000 kPa | 5.47e-08 ± 1.7e-09
382.8 K, 4000 kPa | 5.08e-08 ± 1.6e-09
382.83 K, 7000 kPa | 5.23e-08 ± 1.7e-09
382.94 K, 10000 kPa | 5.36e-08 ± 1.7e-09
392.61 K, 4000 kPa | 4.9e-08 ± 1.6e-09
392.63 K, 7000 kPa | 5.09e-08 ± 1.6e-09
392.73 K, 10000 kPa | 5.23e-08 ± 1.7e-09
402.72 K, 4000 kPa | 4.77e-08 ± 1.5e-09
402.77 K, 7000 kPa | 4.93e-08 ± 1.6e-09
402.81 K, 10000 kPa | 5.07e-08 ± 1.6e-09
412.73 K, 4000 kPa | 4.66e-08 ± 1.5e-09
412.76 K, 7000 kPa | 4.81e-08 ± 1.6e-09
412.86 K, 10000 kPa | 4.94e-08 ± 1.6e-09
422.87 K, 10000 kPa | 4.82e-08 ± 1.6e-09
423 K, 4000 kPa | 4.52e-08 ± 1.5e-09
423.06 K, 7000 kPa | 4.69e-08 ± 1.5e-09
432.66 K, 4000 kPa | 4.42e-08 ± 1.4e-09
432.76 K, 7000 kPa | 4.59e-08 ± 1.5e-09
432.8 K, 10000 kPa | 4.72e-08 ± 1.5e-09
442.61 K, 4000 kPa | 4.31e-08 ± 1.4e-09
442.7 K, 7000 kPa | 4.47e-08 ± 1.5e-09
442.73 K, 10000 kPa | 4.6e-08 ± 1.5e-09
453.25 K, 10000 kPa | 4.51e-08 ± 1.5e-09
453.47 K, 4000 kPa | 4.2e-08 ± 1.4e-09
453.58 K, 7000 kPa | 4.37e-08 ± 1.4e-09
463.14 K, 4000 kPa | 4.14e-08 ± 1.4e-09
463.21 K, 7000 kPa | 4.31e-08 ± 1.4e-09
463.25 K, 10000 kPa | 4.44e-08 ± 1.5e-09
472.15 K, 4000 kPa | 4.08e-08 ± 1.4e-09
472.25 K, 7000 kPa | 4.26e-08 ± 1.4e-09
472.35 K, 10000 kPa | 4.39e-08 ± 1.4e-09
478.13 K, 10000 kPa | 4.36e-08 ± 1.4e-09
478.14 K, 7000 kPa | 4.22e-08 ± 1.4e-09
478.39 K, 4000 kPa | 4.06e-08 ± 1.4e-09
483.16 K, 7000 kPa | 4.19e-08 ± 1.4e-09
483.16 K, 10000 kPa | 4.32e-08 ± 1.4e-09
483.31 K, 4000 kPa | 4.02e-08 ± 1.3e-09
488.17 K, 7000 kPa | 4.16e-08 ± 1.4e-09
488.18 K, 10000 kPa | 4.29e-08 ± 1.4e-09
488.54 K, 4000 kPa | 3.98e-08 ± 1.3e-09
492.58 K, 4000 kPa | 3.96e-08 ± 1.3e-09
493.13 K, 7000 kPa | 4.13e-08 ± 1.4e-09
493.14 K, 10000 kPa | 4.26e-08 ± 1.4e-09
498.16 K, 10000 kPa | 4.22e-08 ± 1.4e-09
498.25 K, 7000 kPa | 4.08e-08 ± 1.4e-09
499 K, 4000 kPa | 3.9e-08 ± 1.3e-09
503.15 K, 10000 kPa | 4.18e-08 ± 1.4e-09
503.16 K, 4000 kPa | 3.85e-08 ± 1.3e-09
503.2 K, 7000 kPa | 4.04e-08 ± 1.3e-09
508.09 K, 7000 kPa | 3.99e-08 ± 1.3e-09
508.14 K, 10000 kPa | 4.15e-08 ± 1.4e-09
508.25 K, 4000 kPa | 3.8e-08 ± 1.3e-09
512.28 K, 4000 kPa | 3.72e-08 ± 1.3e-09
512.29 K, 7000 kPa | 3.94e-08 ± 1.3e-09
512.53 K, 10000 kPa | 4.12e-08 ± 1.4e-09
517.79 K, 4000 kPa | 3.63e-08 ± 1.2e-09
517.85 K, 7000 kPa | 3.9e-08 ± 1.3e-09
518.05 K, 10000 kPa | 4.08e-08 ± 1.4e-09
523.25 K, 4000 kPa | 3.53e-08 ± 1.2e-09
523.25 K, 7000 kPa | 3.84e-08 ± 1.3e-09
523.25 K, 10000 kPa | 4.05e-08 ± 1.3e-09
